Experimental data reported in US11458132B2, “Quinolin-2(1H)-one inhibitors of Late SV40 Factor” (TRUSTEES OF BOSTON UNIVERSITY, priority 2020, dated 2022).

Test system: HT-29 cells
Assay: Allogeneic HT-29 xenograft model in athymic mice
Assay type: in vivo
From the text: Syngeneic and allogeneic xenograft models: We used 8-12 weeks-old athymic female mice for the allogeneic xenograft model and C57BL/6 mice for a syngeneic xenograft model, as described previously^26,27. All the mice were obtained from The Jackson Laboratory and housed at Boston University Medical Center based on the approval from the Institutional Animal Care and Use Committee. Each mouse was implanted subcutaneously on the dorsal surface and was monitored for tumor growth as measured with a VWR Digital Caliper. The tumor volume was calculated twice a week using the equation: length×width×height.
The mice were randomly separated into two groups once tumor volumes reached 100 mm^3. The FQI2-34 was suspended in a mixture of ethanol and DMSO. The mixture was agitated until the compound had completely dissolved. This solution was further diluted in 20% PEG 400 and water to give a final concentration of 2 mg/ml. FQI2-34 or vehicle was injected intraperitoneally daily at 5 mg/kg for 5 days, followed by a break for 2 days. After 21 days, both groups of mice were sacrificed, and the tumors were harvested.
Cell culture and other reagents: HT-29 cells were obtained from ATCC and grown in the Roswell Park Memorial Institute (RPMI) medium supplemented with 10% FBS and penicillin and streptomycin. Cells were injected with the growth-factor poor Matrigel (Millipore, catalogue number DLW354263) using a 23-gauge needle for a total volume of 200 microliters. The MC38 cell line was obtained from ATCC and grown in RPMI medium supplemented with 10% FBS and penicillin and streptomycin.
IHC was performed on the paraffin-embedded tumors as described previously^26-28. The manufacturer's protocol was used along with reagents from the Abcam Mouse and Rabbit Specific HRP/DAB IHC Detection Kit—Micro-polymer (ab236466). Primary antibodies and their dilutions used to detect the respective proteins were: Axin2 (Abcam, #ab32197, 1:100), β-catenin (BD Biosciences, #610154, 1:100), LSF (BD Biosciences, #610818, 1:100), SOX9 (Abcam, #ab185230, 1:100), Ki-67 (Cell Signaling, #8D5, 1:100). […]
All images and quantification were performed using the Nikon Eclipse TE2000 Inverted Microscope with the color camera at the Boston University School of Medicine (BUSM) Imaging Core. Random high-power field (hpf) images of every tumor sample were obtained. For quantification the signal was converted to grayscale, and the number and intensity of pixels were analyzed as integrated density by using Fiji. The integrated density of all the images was normalized to its area. The images were processed in ImageJ (National Institutes of Health, Bethesda, Md.) to quantitate the expression of SOX-9, AXIN-2, and LSF. Regions of interest were drawn and the expression was measured using integrated density normalized to the surface area. The average normalized integrated image densities from multiple hpfs were used to perform the correlational analysis between expression levels of pairs of proteins.

[1] = xenografts, immunohistochemistry

For CCOc1cc(N(C)C)ccc1-c1cc(=O)[nH]c2cc3c(cc12)OCO3 [FQI2-34, 8-(4-(dimethylamino)-2-ethoxyphenyl)-[1,3]dioxolo[4,5-g]quinolin-6(5H)-one], the “tumor volumes compared to controls” value (day 9, day 12 and day 17) was “significantly lower tumor volumes”, the “histopathological analysis of tumors (H & E)” value (day 21) was “lower tumor mass organized in luminal regions interspersed within the interstitium” and the “tumor volume, treated versus control” value (day 21) was 2 times. The tumor volume (day 21, 5 mg/kg intraperitoneally daily for 5 days each week) was 1120±193 mm^3, the “AXIN2, CCND1 and SOX9 by quantitative RT-PCR” value (xenograft lysates at end of treatment) was “significantly downregulated” and the “increase in TUNEL-positive cells” value (xenografts) was 1.8 fold. For the same compound, the “CRC cells with nuclear β-catenin, lower than control” value [1] was 4 fold, the “downregulation of Ki-67” value [1] was 4.2 fold and the “reduction in AXIN2 (integrated density)” value [1] was 5 fold. For the same compound, the “reduction in SOX9 (integrated density)” value [1] was 3.2 fold.
